Assay results from PMC10831071, “Reaction hijacking inhibition of Plasmodium falciparum asparagine tRNA synthetase” (Nature Communications, 2024).
≈ marks a conversion by molar mass, not a printed value. Where “and” joins values, the source holds several entries; their conditions need not be identical. Equal entries are not always repeated. Where two headings read alike, the source gives them in different places.

Key:
[1] = Solid state stability under ambient conditions; type: physicochemical
HsAsnRS = biological target: T1, HsAsnRS (Homo sapiens, UniProt O43776); experiment: LC-MS of Asn-OSM-S-106 adduct generated by recombinant HsAsnRS; type: biochemical
T1 construct: HsAsnRS (residues M1–P548) and CDHsAsnRS (residues A98–P548); His6 (N, cleaved yes); made in house; host or cells: E. coli BL21 (DE3), pET11a
T1 sequence (O43776 1-548): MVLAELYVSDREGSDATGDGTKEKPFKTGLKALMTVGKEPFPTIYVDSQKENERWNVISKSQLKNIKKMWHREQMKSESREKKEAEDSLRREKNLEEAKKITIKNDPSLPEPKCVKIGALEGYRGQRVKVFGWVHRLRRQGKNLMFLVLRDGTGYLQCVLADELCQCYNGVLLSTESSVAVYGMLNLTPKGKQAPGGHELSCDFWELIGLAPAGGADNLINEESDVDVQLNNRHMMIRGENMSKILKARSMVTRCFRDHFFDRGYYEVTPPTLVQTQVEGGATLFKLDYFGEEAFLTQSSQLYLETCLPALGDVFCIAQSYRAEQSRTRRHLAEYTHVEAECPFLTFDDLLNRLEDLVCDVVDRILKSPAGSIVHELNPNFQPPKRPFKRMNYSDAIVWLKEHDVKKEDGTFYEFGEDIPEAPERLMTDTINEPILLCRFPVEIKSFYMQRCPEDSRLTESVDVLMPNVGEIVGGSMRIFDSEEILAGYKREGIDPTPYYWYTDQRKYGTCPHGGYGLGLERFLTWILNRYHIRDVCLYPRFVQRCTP
Experimental: (§1) The reaction buffer consists of 100 mM HEPES pH 7.5 (KOH), 160 mM KCl, 3.5 mM MgCl2, 1 mM DTT. The mixture was incubated at 37 °C for 1 h. After that, an equal volume of 8 M urea was added to the mixture. Finally, trifluoroacetic acid was added to a final concentration of 1%. The sample was centrifuged at 15,000 × g for 10 min and the supernatant was used for LCMS analysis. […] Quantification of the conjugates was done using Skyline (version 21.1.0.278).
(§2) Samples were analyzed by reversed-phase ultra-high-performance liquid chromatography (UHPLC) coupled to tandem mass spectrometry (MS/MS) employing a Vanquish UHPLC linked to an Orbitrap Fusion Lumos mass spectrometer (Thermo Fisher Scientific, San Jose, CA, USA) operated in positive ion mode. Solvent A was 0.1% formic acid/10 mM ammonium acetate in water and solvent B was 0.1% formic acid/10 mM ammonium acetate in acetonitrile. […] Finally, the percentage of solvent B was decreased to 0% in 0.1 min and maintained for 3.9 min.
(§3) MS experiments were performed using a Heated Electrospray Ionization (HESI) source. The spray voltage, flow rate of sheath, auxiliary and sweep gases were 3.5 kV, 20, 6, and 1 ‘arbitrary’ unit(s), respectively. The ion transfer tube and vaporizer temperatures were maintained at 350 °C and 400 °C, respectively, and the S-Lens RF level was set at 50%. […]

P. falciparum (3D7) = experiment: Activity against P. falciparum 3D7 cultures, 72 h (PfLDH growth inhibition / flow cytometry); type: cell-based, Plasmodium falciparum
Experimental: Antimalarial activity against P. falciparum 3D7 was tested by TCGLS, Kolkata, India, using the lactate dehydrogenase (PfLDH) growth inhibition assay. […] Plates were shaken to ensure mixing and were placed in the dark at 21 °C for 20 min. […] P. falciparum strain (3D7) was obtained from BEI Resources.
Viability was assessed in the second cycle by flow cytometry, following labeling with 2 μM Syto-61 (Thermo Fisher Scientific)[48],[49]. Viability represents the parasitemia normalized to untreated and “kill” controls that were treated with 2 μM dihydroartemisinin (DHA; Sigma-Aldrich) for 48–72 h. For drug pulse assays, tightly synchronized Cam3.II-rev[50] parasites (1–1.5% parasitemia, 0.2% final hematocrit) were added to the plates and incubated for 6 h. Drugs were removed and the parasitemia assessed in the trophozoite stage of the next cycle.

Solubility = type: physicochemical
PfAsnRS [2] = experiment: LC-MS of Asn-OSM-S-106 adduct generated by recombinant PfAsnRS; type: biochemical, Plasmodium falciparum; settings: 1 μM PfAsnRS, 10 μM OSM-S-106, 1 h, 37 °C; individual experiments
Experimental: as §1, §2, §3

PfAsnRS [3] = biological target: PfAsnRS (Plasmodium falciparum, UniProt O96198); experiment: biochemical
Sequence of PfAsnRS (Plasmodium falciparum, UniProt O96198) (O96198 entry or part of it): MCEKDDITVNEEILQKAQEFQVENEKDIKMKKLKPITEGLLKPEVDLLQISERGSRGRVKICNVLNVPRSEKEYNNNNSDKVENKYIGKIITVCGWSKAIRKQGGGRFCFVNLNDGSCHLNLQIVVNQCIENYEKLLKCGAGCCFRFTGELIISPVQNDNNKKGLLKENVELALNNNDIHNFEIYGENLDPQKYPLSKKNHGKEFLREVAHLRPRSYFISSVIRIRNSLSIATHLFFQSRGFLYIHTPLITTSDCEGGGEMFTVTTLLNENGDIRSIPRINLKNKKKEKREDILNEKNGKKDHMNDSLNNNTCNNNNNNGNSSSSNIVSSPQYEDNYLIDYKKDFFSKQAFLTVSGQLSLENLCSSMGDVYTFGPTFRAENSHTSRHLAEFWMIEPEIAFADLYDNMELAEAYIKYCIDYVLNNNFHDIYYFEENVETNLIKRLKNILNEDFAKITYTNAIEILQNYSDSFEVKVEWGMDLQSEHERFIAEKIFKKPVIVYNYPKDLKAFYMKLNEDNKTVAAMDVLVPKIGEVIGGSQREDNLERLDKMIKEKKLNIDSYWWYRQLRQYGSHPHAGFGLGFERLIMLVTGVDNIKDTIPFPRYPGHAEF

Question: With `Nc1ncnc2cc(-c3cccc(S(N)(=O)=O)c3)sc12` [OSM-S-106] as the molecule, how does the “stability in the solid state” value [1] read?
Answer: stable in the solid state

Question: What about the “MS peak area (Asn-OSM-S-106 adduct)” value (HsAsnRS; 1 μM HsAsnRS, 10 μM OSM-S-106, 1 h, 37 °C, individual experiments) of the same molecule?
Answer: 3564405 and 3396334 and 2555457 and 1397007

Question: What about the “Asn-OSM-S-106 signal intensity with HsAsnRS, lower than with PfAsnRS” value (HsAsnRS; 10 μM OSM-S-106, ATP, Asn, E. coli tRNA) of the same molecule?
Answer: 18 fold

Question: What about the IC50 (P. falciparum (3D7); Plasmodium falciparum, 3D7, 72 h, read-out: Pf3D7 IC50(72 h), 72 h, mean ± SD or duplicate values) of the same molecule?
Answer: 58 ± 17 nM

Question: What about the IC50 (P. falciparum (3D7); Plasmodium falciparum, 3D7, read-out: amount needed to kill parasite cultures) of the same molecule?
Answer: ~60 nM

Question: And the IC50 (P. falciparum (3D7); read-out: Pf3D7 IC50 (72h), individual biological repeats (source data of Table 1))?
Answer: 61.1 nM and 52.7 nM and 87.1 nM and 79.6 nM and 50.5 nM and 48.8 nM and 37.9 nM and 43.7 nM

Question: What about the solubility (Solubility; pH 2, simulated gastric fluid) of the same molecule?
Answer: 50 to 100 µg/mL (≈ 163 to 326 µM)

Question: What about the solubility (Solubility; pH 6.5, aqueous buffer) of the same molecule?
Answer: 12.5 to 25 µg/mL (≈ 40.8 to 81.6 µM)

Question: And the “MS peak area (Asn-OSM-S-106 adduct)” value (PfAsnRS [2])?
Answer: 50050244 and 46285516 and 50264000 and 46572204

Question: What about the ATP consumption (PfAsnRS [3]; 0.1 μM OSM-S-106, PfAsnRS + tRNA, 0 μM = 100, 0.1 µM) of the same molecule?
Answer: 82.5658 and 96.0922

Question: And the ATP consumption (PfAsnRS [3]; 0.1 μM OSM-S-106, PfAsnRS - tRNA, 0 μM = 100, 0.1 µM)?
Answer: 102.037 and 98.4072 and 106.756 and 97.2403 and 101.662

Question: And the ATP consumption (PfAsnRS [3]; 0.1 μM OSM-S-106, PfAsnRS, normalised to 1 (Fig 3C), 0.1 µM)?
Answer: 0.9643 and 0.9875

Question: And the ATP consumption (PfAsnRS [3]; 1 μM OSM-S-106, PfAsnRS + tRNA, 0 μM = 100, 1 µM)?
Answer: 57.1862 and 87.1941

Question: What about the ATP consumption (PfAsnRS [3]; 1 μM OSM-S-106, PfAsnRS - tRNA, 0 μM = 100, 1 µM) of the same molecule?
Answer: 113.687 and 120.029 and 93.4234 and 93.1495 and 103.899

Question: What about the ATP consumption (PfAsnRS [3]; 1 μM OSM-S-106, PfAsnRS, normalised to 1 (Fig 3C), 1 µM) of the same molecule?
Answer: 0.7028 and 0.7102

Question: What about the ATP consumption (PfAsnRS [3]; 3 μM OSM-S-106, PfAsnRS, normalised to 1 (Fig 3C), 3 µM) of the same molecule?
Answer: 0.5774 and 0.6156

Question: What about the ATP consumption (PfAsnRS [3]; 5 μM OSM-S-106, PfAsnRS + tRNA, 0 μM = 100, 5 µM) of the same molecule?
Answer: 38.7619 and 47.6862

Question: What about the ATP consumption (PfAsnRS [3]; 5 μM OSM-S-106, PfAsnRS - tRNA, 0 μM = 100, 5 µM) of the same molecule?
Answer: 106.249 and 114.714 and 99.7656 and 89.6731 and 97.6484

Question: What about the ATP consumption (PfAsnRS [3]; 10 μM OSM-S-106, PfAsnRS + tRNA, 0 μM = 100, 10 µM) of the same molecule?
Answer: 33.3781 and 42.1739

Question: And the ATP consumption (PfAsnRS [3]; 10 μM OSM-S-106, PfAsnRS - tRNA, 0 μM = 100, 10 µM)?
Answer: 118.679 and 119.307 and 117.388 and 114.394 and 95.1041 and 101.36

Question: And the ATP consumption (PfAsnRS [3]; 10 μM OSM-S-106, PfAsnRS, normalised to 1 (Fig 3C), 10 µM)?
Answer: 0.4326 and 0.4705

Question: What about the ATP consumption (PfAsnRS [3]; 25 μM OSM-S-106, PfAsnRS + tRNA, 0 μM = 100, 25 µM) of the same molecule?
Answer: 31.8347 and 29.629

Question: What about the ATP consumption (PfAsnRS [3]; 25 μM OSM-S-106, PfAsnRS - tRNA, 0 μM = 100, 25 µM) of the same molecule?
Answer: 125.392 and 106.541 and 117.104 and 104.95 and 102.467 and 90.9619

Question: And the ATP consumption (PfAsnRS [3]; 30 μM OSM-S-106, PfAsnRS, normalised to 1 (Fig 3C), 30 µM)?
Answer: 0.3585 and 0.3795

Question: What about the ATP consumption (PfAsnRS [3]; 100 μM OSM-S-106, PfAsnRS + tRNA, 0 μM = 100, 100 µM) of the same molecule?
Answer: 21.4279 and 12.1476

Question: What about the ATP consumption (PfAsnRS [3]; 100 μM OSM-S-106, PfAsnRS - tRNA, 0 μM = 100, 100 µM) of the same molecule?
Answer: 100.893 and 101.422 and 99.2831 and 94.8016 and 84.8517

Question: What about the ATP consumption (PfAsnRS [3]; 100 μM OSM-S-106, PfAsnRS, normalised to 1 (Fig 3C), 100 µM) of the same molecule?
Answer: 0.3092 and 0.3431

Question: What about the ATP consumption (PfAsnRS [3]; 200 μM OSM-S-106, PfAsnRS - tRNA, 0 μM = 100, 200 µM) of the same molecule?
Answer: 112.741 and 109.993 and 91.5345 and 106.529 and 72.1689

Question: What about the ATP consumption (PfAsnRS [3]; 200 μM OSM-S-106, PfAsnRS, normalised to 1 (Fig 3C), 200 µM) of the same molecule?
Answer: 0.2731 and 0.3306

Question: What about the ATP consumption (PfAsnRS [3]; 500 μM OSM-S-106, PfAsnRS - tRNA, 0 μM = 100, 500 µM) of the same molecule?
Answer: 107.256 and 120.979 and 131.723 and 125.52 and 90.3898 and 80.1015

Question: And the IC50 (PfAsnRS [3]; IC50, ATP consumption, 0.05 μM PfAsnRS, E. coli tRNA present, 37 °C, 1 h (Fig. 3C, D))?
Answer: 6200 nM

Question: And the IC50 (PfAsnRS [3]; IC50, ATP consumption, minus E. coli tRNA, 0.5 μM enzyme, […] (Fig. 3B))?
Answer: > 500000 nM

Question: And the IC50 (PfAsnRS [3]; IC50, ATP consumption, plus E. coli tRNA, 0.5 μM enzyme, 37 °C, […] (Fig. 3B))?
Answer: 7300 nM

Question: And the IC50 (PfAsnRS [3]; concentration needed to induce 50% inhibition of ATP consumption)?
Answer: ~1000 nM
